For four compounds, Ki and inhibition results are on record in ChEMBL document CHEMBL1122976, “Potential inhibitors of S-adenosylmethionine-dependent methyltransferases. 10. Base- and amino acid modified analogues of S-aristeromycinyl-L-homocysteine” (J Med Chem, 1985).

The target of assay [1] is T1, Phenylethanolamine N-methyltransferase (Bos taurus, UniProt P10938).
T1 sequence (P10938 whole entry): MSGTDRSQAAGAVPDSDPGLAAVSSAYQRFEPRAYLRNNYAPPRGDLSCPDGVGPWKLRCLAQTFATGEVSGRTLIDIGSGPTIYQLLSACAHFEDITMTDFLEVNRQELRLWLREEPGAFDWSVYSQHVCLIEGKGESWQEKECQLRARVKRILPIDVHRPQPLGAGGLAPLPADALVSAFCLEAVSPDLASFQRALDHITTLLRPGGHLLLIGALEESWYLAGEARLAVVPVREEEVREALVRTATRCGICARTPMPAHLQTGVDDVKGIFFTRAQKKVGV
As to the kind of experiment: Inhibition constant was evaluated against PNMT.

Assay [2] addresses Histamine N-methyltransferase (Cavia porcellus) (UniProt Q9EST2). As to the kind of experiment: Inhibition of Histamine N-methyl-transferase at 0.2 mM.
The target is the same in assay [3]. Kind of assay: Inhibition of Histamine N-methyl-transferase at 2.0 mM.
The target in assay [4] is T2, Catechol O-methyltransferase (Rattus norvegicus) (UniProt P22734).
T2 sequence (whole entry): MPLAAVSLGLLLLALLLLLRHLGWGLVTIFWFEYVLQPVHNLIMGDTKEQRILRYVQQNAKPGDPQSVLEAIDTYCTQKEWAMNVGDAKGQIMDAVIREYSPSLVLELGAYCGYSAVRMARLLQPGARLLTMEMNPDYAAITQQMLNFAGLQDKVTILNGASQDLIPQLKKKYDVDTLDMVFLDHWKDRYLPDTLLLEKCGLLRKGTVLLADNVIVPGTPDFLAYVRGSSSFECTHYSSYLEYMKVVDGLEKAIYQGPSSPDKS
Kind of assay: Inhibition of Catechol O-methyltransferase at 2.0 mM.

Assay [5] addresses T3, Phenylethanolamine N-methyltransferase (Bos taurus) (UniProt P10938).
T3 sequence (whole entry): T1 sequence (P10938 whole entry)
As to the kind of experiment: Inhibition of PNMT at 0.2 mM.

Assay [6] has as its target T3, Phenylethanolamine N-methyltransferase (Bos taurus). Kind of assay: Inhibition of PNMT at 2.0 mM.
Assay [7] addresses T2, Catechol O-methyltransferase (Rattus norvegicus). Kind of assay: Inhibition of Catechol O-methyltransferase at 0.2 mM.

Sequence of Histamine N-methyltransferase (Cavia porcellus) (Q9EST2 whole entry): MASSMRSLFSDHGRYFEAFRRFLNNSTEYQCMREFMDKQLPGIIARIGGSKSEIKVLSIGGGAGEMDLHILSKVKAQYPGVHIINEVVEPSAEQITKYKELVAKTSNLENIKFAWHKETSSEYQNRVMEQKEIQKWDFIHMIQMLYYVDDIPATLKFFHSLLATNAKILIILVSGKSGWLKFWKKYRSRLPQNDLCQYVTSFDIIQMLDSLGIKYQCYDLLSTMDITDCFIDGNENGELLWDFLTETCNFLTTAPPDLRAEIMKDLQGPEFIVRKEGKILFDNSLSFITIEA

As a reminder, the Ki is a measure of affinity in units of concentration, obtained from inhibition or displacement. In turn, `Nc1ncnc2c1ncn2[C@@H]1O[C@H](CSCC[C@H](N)C(=O)O)[C@@H](O)[C@H]1O` (stereo in doubt; 5) [S-ADENOSYLHOMOCYSTEINE] registered a Ki in assay [1] of 29 µM. That is a double-digit micromolar value.

In general, inhibition refers to the relative decrease from the control value, in per cent. As for `CNc1ncnc2c1ncn2C1O[C@H](CSCCC(N)C(=O)O)[C@@H](O)[C@H]1O` (some centres undefined), the inhibition was 11% in assay [2]; 28% in assay [3]; 55% in assay [4]; 11% in assay [5]; 42% in assay [6]; 15% in assay [7].

Regarding `Nc1ncnc2c1ncn2[C@@H]1O[C@H](C[S+]([O-])CCC(N)C(=O)O)[C@@H](O)[C@H]1O` (some centres undefined), the inhibition was found to be 0% in assay [2]; 9% in assay [3]; 42% in assay [4]; 10% in assay [5]; 22% in assay [6]; 14% in assay [7].

For `Nc1ncnc2c1ncn2[C@@H]1O[C@H](CSCC[C@H](N)C(=O)O)[C@@H](O)[C@H]1O` (stereo in doubt; 9) [S-ADENOSYLHOMOCYSTEINE], in assay [1], the Ki stood at 62.3 µM.
